Source: EP1038880B1, “Androstanes and pregnanes for allosteric modulation of GABA receptor” (priority 1994, dated 1995)
Where two headings read alike, the source gives them in different places.

Key:
[1] = test system: Bovine Uteral Progesterone Receptors; assay: Inhibition of 3H-progesterone binding, uterus cytosol; settings: competitor 10^-6M; 3H-progesterone 0.15 nM
Procedure: The data presented were obtained by performing assays in accordance with the procedures described in et al. 1988 previously to determine the effect of progesterone metabolites and their derivatives and the progestin R5020 on the binding of [^3H]R5020 to the progesterone receptor in rat uterus (Gee et al. 1988).
^3H-progesterone (0.15 nM) was incubated with the rat uterus cytosol in the presence of the test compounds. The specific binding were determined after incubation and compared to the control incubation without the compounds. The data are expressed as percent inhibition of binding.
In Table 3, rats were adrenalectomized 3 days prior to sacrifice. To isolate the mineralocorticoid receptor, brain cytosol fractions were prepared as describe in Gee, et al. 1988. The drugs were incubated with 3 nM of ^3H-aldosterone (the specific ligand for the mineralocorticoid receptor) in the presence of the selective type II agonist RU28362 (0.5 µM) which blocks ^3H-aldosterone binding to the type II (glucocorticoid) receptors. Table 2. Inhibition of 3H-Progesterone Binding to the Bovine Uteral Progesterone Receptors

[2] = biological target: T1, Bovine Uteral Estrogen Receptors (Bos taurus, UniProt P49884); assay: Inhibition of 3H-estradiol binding, uteri cytosol; settings: competitor 10^-6M; 3H-estradiol 0.15 nM
T1 construct: from tissue; host or cells: bovine uteri cytosol
T1 sequence (P49884 1-596): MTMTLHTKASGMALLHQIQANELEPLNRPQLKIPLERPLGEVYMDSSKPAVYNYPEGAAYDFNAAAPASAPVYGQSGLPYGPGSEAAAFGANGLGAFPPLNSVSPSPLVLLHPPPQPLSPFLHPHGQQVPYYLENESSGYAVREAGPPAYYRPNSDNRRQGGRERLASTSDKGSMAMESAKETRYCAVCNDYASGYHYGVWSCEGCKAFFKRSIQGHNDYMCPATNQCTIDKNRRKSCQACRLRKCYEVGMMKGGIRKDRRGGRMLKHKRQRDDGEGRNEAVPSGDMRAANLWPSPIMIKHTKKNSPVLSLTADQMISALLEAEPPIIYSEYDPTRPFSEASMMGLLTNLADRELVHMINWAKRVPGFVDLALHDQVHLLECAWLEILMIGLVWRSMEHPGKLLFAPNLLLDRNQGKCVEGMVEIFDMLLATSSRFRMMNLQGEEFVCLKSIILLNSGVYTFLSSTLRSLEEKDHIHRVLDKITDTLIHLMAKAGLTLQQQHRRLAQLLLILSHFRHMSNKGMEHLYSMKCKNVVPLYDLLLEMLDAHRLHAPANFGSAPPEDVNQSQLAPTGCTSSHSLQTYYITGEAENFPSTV

[3] = biological target: T2, Hippocampal Mineralocorticoid Receptors (Rattus norvegicus, UniProt P22199); assay: Inhibition of 3H-aldosterone binding, brain cytosol; set-up: species or system rats; settings: competitor 10^-6M; 3 nM 3H-aldosterone, RU28362 0.5 µM
T2 construct: To isolate the mineralocorticoid receptor, brain cytosol fractions were prepared; from tissue; host or cells: rat brain (hippocampal) cytosol
T2 sequence (P22199 1-981): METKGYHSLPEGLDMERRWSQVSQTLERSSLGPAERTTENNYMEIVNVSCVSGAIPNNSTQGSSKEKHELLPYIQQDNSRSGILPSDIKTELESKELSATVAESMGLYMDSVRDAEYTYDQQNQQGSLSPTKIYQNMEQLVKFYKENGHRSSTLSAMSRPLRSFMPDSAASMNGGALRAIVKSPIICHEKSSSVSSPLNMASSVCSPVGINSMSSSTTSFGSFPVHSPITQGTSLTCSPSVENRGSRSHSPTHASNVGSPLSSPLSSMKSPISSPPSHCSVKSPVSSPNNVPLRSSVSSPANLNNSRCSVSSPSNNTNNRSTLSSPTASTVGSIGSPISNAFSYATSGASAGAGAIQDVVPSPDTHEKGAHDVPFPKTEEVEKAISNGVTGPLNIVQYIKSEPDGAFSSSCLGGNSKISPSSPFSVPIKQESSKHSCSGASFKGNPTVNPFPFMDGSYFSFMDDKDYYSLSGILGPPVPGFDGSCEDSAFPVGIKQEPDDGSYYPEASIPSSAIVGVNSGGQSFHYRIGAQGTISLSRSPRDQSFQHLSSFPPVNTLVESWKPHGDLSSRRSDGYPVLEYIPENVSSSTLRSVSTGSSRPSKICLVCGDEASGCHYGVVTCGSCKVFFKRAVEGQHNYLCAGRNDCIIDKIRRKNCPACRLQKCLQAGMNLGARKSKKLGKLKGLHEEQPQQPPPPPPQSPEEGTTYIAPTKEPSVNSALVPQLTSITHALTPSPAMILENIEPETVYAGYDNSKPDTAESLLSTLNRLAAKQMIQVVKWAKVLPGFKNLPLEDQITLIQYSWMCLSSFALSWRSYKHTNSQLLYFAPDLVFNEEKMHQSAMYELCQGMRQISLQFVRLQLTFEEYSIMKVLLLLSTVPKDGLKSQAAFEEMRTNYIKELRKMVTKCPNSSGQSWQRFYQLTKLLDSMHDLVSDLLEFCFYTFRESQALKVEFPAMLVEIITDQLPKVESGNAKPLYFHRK
Procedure: (§1) Various hormonal activities of representative neuroactive steroids were further studied through testing their potential estrogenic, mineralocorticoid and glucocorticoid activities. These activities were analyzed by monitoring the ability of the compounds to inhibit binding of the steroid hormones to their respective hormone receptors.
In Table 3, rats were adrenalectomized 3 days prior to sacrifice. […] Table 2. Inhibition of 3H-Progesterone Binding to the Bovine Uteral Progesterone Receptors
Table 3. Inhibition of 3H-Aldosterone Binding to Hippocampal Mineralocorticoid Receptors

mice [4] = assay: Loss-of-righting reflex (anesthetic activity); type: in vivo; settings: iv
Procedure: The compounds of and used in the invention can also be used for anesthetic indications at high doses. However, the preferred route of administration to induce anesthesia is intravenous (i.v.) administration. In animals, a drug's anesthetic properties is measured by the drug's ability to produce a loss-of-righting reflex. The loss-of-righting reflex is defined as the inability of an animal to right itself within […] on its back. Mice were administered drug i.v. in the lateral tail vein. Following administration, mice were placed on their backs and observed for loss-of-righting reflex. Table 12. Anesthetic Activity of Neuroactive Steroids in Mice

tonic seizure [5] = assay: Maximal electroshock test; type: in vivo; settings: Mus musculus, ip, steroids i.p., mice
Procedure: (§2) The anticonvulsant tests are similar to that described above. […] The number of animals with tonic and/or clonic convulsions was recorded. In the maximal electroshock test, 50 mA of current at 60 Hz was delivered through corneal electrodes for 200 msec to induce tonic seizure. The ability of compounds to abolish the tonic component was defined as the endpoint. General CNS depression potential was determined by a rotorod test 10 minutes after the injection of compounds where the number of mice staying on a rotating (6 rpm) rod for 1 minute in one of the three trials was determined. […] Table 7. Anticonvulsant Activity of Exemplified Neuroactive Steroids and those of Selected Clinically Useful Anticonvulsants in Mice

Glucocorticoid Receptors = biological target: T3, Glucocorticoid Receptors (Rattus norvegicus, UniProt P06536); assay: Inhibition of 3H-dexamethasone binding, brain cytosol; set-up: species or system rats; dose or concentration left out as unconfirmed; settings: read-out: % of Inhibition
T3 construct: from tissue; host or cells: rat brain cytosol
T3 sequence (P06536 1-795): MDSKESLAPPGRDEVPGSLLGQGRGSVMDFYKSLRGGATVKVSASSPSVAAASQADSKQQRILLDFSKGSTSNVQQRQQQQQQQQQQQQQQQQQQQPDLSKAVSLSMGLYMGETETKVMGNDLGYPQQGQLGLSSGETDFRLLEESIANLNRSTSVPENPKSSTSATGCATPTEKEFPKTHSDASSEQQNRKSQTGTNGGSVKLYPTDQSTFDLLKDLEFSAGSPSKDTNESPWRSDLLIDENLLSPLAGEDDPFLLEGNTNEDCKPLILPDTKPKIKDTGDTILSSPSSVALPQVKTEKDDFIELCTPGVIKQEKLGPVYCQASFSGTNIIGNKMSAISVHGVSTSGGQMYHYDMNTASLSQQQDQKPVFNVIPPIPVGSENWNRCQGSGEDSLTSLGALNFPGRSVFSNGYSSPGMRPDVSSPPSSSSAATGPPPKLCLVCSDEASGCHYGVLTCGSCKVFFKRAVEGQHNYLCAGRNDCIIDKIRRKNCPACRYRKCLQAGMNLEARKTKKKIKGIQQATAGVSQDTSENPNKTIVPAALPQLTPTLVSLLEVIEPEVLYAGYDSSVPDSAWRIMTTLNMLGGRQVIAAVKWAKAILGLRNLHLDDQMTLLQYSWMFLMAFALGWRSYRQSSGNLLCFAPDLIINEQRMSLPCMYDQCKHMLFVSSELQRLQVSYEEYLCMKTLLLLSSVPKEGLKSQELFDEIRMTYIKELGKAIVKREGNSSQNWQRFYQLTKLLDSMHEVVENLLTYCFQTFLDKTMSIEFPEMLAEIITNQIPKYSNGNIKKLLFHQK
Procedure: as §1
For Table 4, brain cytosol fractions were prepared as for Table 3, and the compounds were incubated with 3 nM of ^3H-dexamethasone (the specific ligand for the glucocorticoid receptor).

[6] = test system: metrazol induced convulsions; assay: animal or person; type: in vivo, mice; settings: Mus musculus; metrazol 85 mg/kg s.c., steroids i.p., mice
(+)bicuculline [7] = assay: Anticonvulsant test against (+)bicuculline; type: in vivo, mice; settings: Mus musculus, read-out: ED50 BIC
Procedure: as §2

strychnine [8] = assay: Anticonvulsant test against strychnine; type: in vivo, mice; settings: Mus musculus, read-out: ED50 STR
Procedure: as §2

picrotoxin [9] = assay: Anticonvulsant test against picrotoxin; type: in vivo, mice; settings: Mus musculus, read-out: ED50 PICRO
Procedure: as §2

[10] = test system: N.I.H. Swiss-Webster mice; assay: Light/dark transition test; type: in vivo; settings: IP, 10 min test, vs control, Dunnett's t-test (Fig. 8)
Procedure: Male N.I.H. Swiss-Webster mice (Harlan, Harlan, Indianapolis, IN) weighing 15-20 g were housed four per cage in polyethylene cages with sawdust bedding. The colony room was environmentally controlled (22°C) with a hr light/dark cycle (0600-1800hr). Food and water were available ad libitum, except during testing. The experiments were run from 0700-1500 hr and groups were counterbalanced for time of day effects. Mice were only administered drug or vehicle once.
The apparatus included two 2-compartment automated test chambers (Model RXYZCM16, Omnitech Electronics, Columbus, OH). The open compartment was connected to the enclosed compartment via a 7.5 × 7.5 cm passageway. The open compartment was brightly lit using a 200 W incandescent light bulb. The experimental room was kept dark. Interruptions of the infrared beams in either chamber were automatically recorded by being linked to a computer through a Digiscan Analyzer (Omnitech and the data was analyzed using the Integrated Lab Animal Monitoring System (Omnitech Electronics). N.IH. Swiss-Webster mice were administered vehicle or test drug intraperiotoneally (IP),10 min later they were placed in the center of the lit compartment. The number of transitions between the lit and dark chambers, total activity in the lit chamber and the time spent in the lit chamber were measured during a 10 min test period.

picrotoxin [11] = settings: cited from earlier work
mice [12] = settings: data from Swinyard & Woodhead 1982; cited from earlier work
tonic seizure [13] = settings: cited from earlier work
[14] = test system: metrazol induced convulsions; settings: cited from earlier work
(+)bicuculline [15] = settings: cited from earlier work
strychnine [16] = settings: convulsant i.v.; data from Worms et al. 1982; cited from earlier work
[17] = data from Swinyard & Woodhead 1982
[18] = convulsant i.v., data from Worms et al. 1982

Molecule: 5α-pregnan-3β,20-trimethyl-3α,20-diol
- % of Inhibition [1]: 8%
- % of Inhibition [2]: 0%
- % of Inhibition [3]: 0%

Molecule: CC(=O)[C@H]1CC[C@H]2[C@@H]3CC[C@H]4C[C@H](O)CC[C@]4(C)C3=CC[C@]12C [3α-Hydroxy-5α-pregn-9-en-20-one]
- Loss-of-Righting Reflex (mice [4]; 10 mg/kg): 100

Molecule: CO/C=C1/CC[C@H]2[C@@H]3CC[C@H]4C[C@H](O)CC[C@@H]4[C@H]3CC[C@]12C [3α-Hydroxy-17(Z)-methoxymethylene-19-nor-5α-androstane]
- Loss-of-Righting Reflex (mice [4]; 5 mg/kg): 75

Molecule: CC(=O)[C@H]1CC[C@H]2[C@@H]3CC[C@H]4C[C@](C)(O)CC[C@]4(C)[C@H]3CC[C@]12C [3α-hydroxy-3β-methyl-5α-pregnan-20-one]
- ED50 (tonic seizure [5]): > 100 mg/kg
- inhibition (Glucocorticoid Receptors): 0.6%
- ED50 [6]: 6.3 mg/kg
- % of Inhibition [1]: 4%
- ED50 ((+)bicuculline [7]): 61.9 mg/kg
- ED50 (strychnine [8]): > 100 mg/kg
- ED50 (picrotoxin [9]): 35.4 mg/kg
- inhibition at 1 µM [3]: 3.2%

Molecule: CC(=O)[C@H]1CC[C@H]2[C@@H]3CC[C@@H]4C[C@@](O)(C#CCl)CC[C@]4(C)[C@H]3CC[C@]12C [3β-(Chloroethynyl)-3α-hydroxy-5β-pregnan-20-one]
- Loss-of-Righting Reflex (mice [4]; 20 mg/kg): 100

Molecule: C[C@]12CC[C@@H](O)C[C@H]1CC[C@@H]1[C@@H]2CC[C@]2(C)[C@@H](C(=O)CO)CC[C@@H]12 [5β-pregnan-3α,21-diol-20-one]
- inhibition (Glucocorticoid Receptors): 8.2%
- % of Inhibition [1]: 6%
- inhibition at 1 µM [3]: 13.8%

Molecule: CC(=O)[C@H]1CC[C@H]2[C@@H]3CC[C@@H]4C[C@H](O)CC[C@]4(C)[C@H]3CC[C@]12C [5β-pregnan-3α-ol-20-one, 3α-OH-5β-pregnan-20-one]
- number of transitions between the dark box and the light box, in words [10]: significantly increased
- % of Inhibition [1]: 9%

Molecule: O=C1CN=C(c2ccccc2Cl)c2cc([N+](=O)[O-])ccc2N1 [Clonazepam]
- ED50 PICRO (picrotoxin [11]; [17]): 0.043 mg/kg
- ED50 RR (mice [12]): 0.184 mg/kg
- ED50 MES (tonic seizure [13]; [17]): 93 mg/kg
- ED50 MTZ [14, 17]: 0.009 mg/kg
- ED50 BIC ((+)bicuculline [15]; [17]): 0.0086 mg/kg

Molecule: CCC1(c2ccccc2)C(=O)NC(=O)NC1=O [Phenobarbital]
- ED50 RR (mice [12]): 69 mg/kg

Molecule: NC(=O)CCC/N=C(\c1ccc(Cl)cc1)c1cc(F)ccc1O [Progabide]
- ED50 PICRO (picrotoxin [11]; [18]): 105 mg/kg
- ED50 STR (strychnine [16]): 75 mg/kg
- ED50 MES (tonic seizure [13]; data from Worms et al. 1982): 75 mg/kg
- ED50 MTZ [14, 18]: 30 mg/kg
- ED50 BIC ((+)bicuculline [15]; [18]): 30 mg/kg
